Assays:
[1] = test system: protein with a molecular weight of about 30 kDa; assay: Isolation and competition with H-9-immobilized SG-EGDE particles, HeLa cell nuclear extracts; assay type: binding; conditions: for elution of the 30 kDa protein from H-9-immobilized particles by free drug: elution with 3 mM drug; for yield of the 30 kDa protein in competition experiment: free drug added simultaneously
Experimental: HeLa cell nuclear extracts (NE) were prepared according to the method as described previously (Dignam, J. D., Lebovitz, R. M. and Roeder, R. G. (1983). Accurate transcription by RNA pol II in a soluble extracts from isolated mammalian nucleic. Nucleic Acids Res 11. 1475-1489).

[2] = test system: protein with a molecular weight of about 170 kDa; assay: Isolation and competition with DQ2511-immobilized particles, lysate of rat DRG cell; assay type: binding; conditions: concentrated crude lysate of rat DRG cell
Experimental: Microspheres and the concentrated crude lysate of rat DRG cell were mixed and centrifuged to separate substances binding to DQ2511 which was immobilized on particles from the mixture. The procedures of binding, washing and detection of protein were performed as described above. […] In the above procedure, about 10 ng of 170 kDa DQ2511-binding protein was obtained from 1 mg of the DQ2511-immobilized SG-EGDE particles.

[3] = test system: protein with a molecular weight of about 110 kDa; assay: Isolation and competition with DQ2511-immobilized particles, HeLa cytoplasmic fraction; assay type: binding; conditions: 1.0 M KCl eluate
Experimental: To these washed DQ2511-not-immobilized SG-EGDE particles and DQ2511-immobilized-SG-EGDE particles, 1 ml of the diluted cytoplasmic fraction was added and mixed. […] The wash solution and eluate solutions were stored at −80° C.

NF-κB = assay: Transfection of NF-κB-regulated luciferase plasmid into Jurkat cells; assay type: cell-based; conditions: luciferase genes regulated by NF-κB
From the text: The functions of NH2-E3330 were compared with those of E3330 with respect to transcriptional activation abilities of NF-κB.

[4] = target: T1, Ref-1 redox activity on NF-κB (Homo sapiens, UniProt P27695); assay: Gel-shift assay of NF-κB DNA binding, NF-κB partially purified from Jurkat cells; assay type: biochemical
T1 construct: His6 (pET14b) (N); made in house; NF-κB: partially purified from Jurkat cells
Experimental: Prior to the conduction of the investigation, there are some considerations. […] There are two cases; one is an oxidized condition where these cystine residues are bound to each other through an S-S bond; and the other one is a reduced condition where they are individually existing with an SH-group. Therefore, NF-κB was treated with dithiothreitol (DTT) that is known as a reductant to make the state of NF-κB to be reduction.

[5] = target: recombinant protein of Ref-1 (Homo sapiens, UniProt P27695); assay: Binding of recombinant Ref-1 to E3330-immobilized particles
Ref-1 [6] = target: T2, Ref-1 (Homo sapiens, UniProt P27695); assay: Far Western method using 14C-labeled E3330; assay type: binding
T2 construct: His6 (pET14b) (N); made in house

[7] = target: T3, Ref-1 acting on p50/p50 homo-dimer or p65/p50 hetero-dimer (Homo sapiens, UniProt P27695); assay: Gel-shift assay with recombinant p65 and p50 subunits; assay type: biochemical
T3 construct: His6 (pET14b) (N); made in house; p50 and p65: baculovirus expression system

[8] = target: T4, Ref-1 amino acid sequence 72 a.a. to 88 a.a. (Homo sapiens, UniProt P27695); assay: Binding of Ref-1 fragment 72 a.a. to 88 a.a. to E3330-immobilized particles
T4 construct: made in house

[9] = test system: proteins with a molecular weight of about 60, 38, and 27 kDa; assay: Isolation and competition with E3330-immobilized SG-EGDE particles, Jurkat nuclear extract; assay type: binding; conditions: 1M KCl eluate
Experimental: From the purification using P.1, there was not observed any specific protein band specifically eluted from E3330-immobilized particles.
The identification of the specific proteins were conducted by electrophoresis using SDS-PAGE.

[10] = target: protein with a molecular weight of about 38 kDa (Ref-1) (Homo sapiens, UniProt P27695); assay: Isolation and competitive binding-inhibition with E3330-immobilized SG-EGDE particles, Jurkat cytoplasmic P.5 fraction
Solubility in water = assay type: physicochemical
Ref-1 [11] = target: T2, Ref-1; assay: AP nuclease activity of recombinant Ref-1 on AP plasmid DNA; assay type: biochemical; conditions: supercoiled AP plasmid DNA to open circular
Experimental: First, concerning AP nuclease activity, the plasmid pBluescript SK+DNA (50 μg) was treated with 50 mM sodium citrate (pH 3.5) at 60° C. for 15 minutes, followed by dialysis in 50 mM Tris-HCl (pH 7.4) at 4° C. for about 24 hours.

T2 sequence (P27695 whole entry): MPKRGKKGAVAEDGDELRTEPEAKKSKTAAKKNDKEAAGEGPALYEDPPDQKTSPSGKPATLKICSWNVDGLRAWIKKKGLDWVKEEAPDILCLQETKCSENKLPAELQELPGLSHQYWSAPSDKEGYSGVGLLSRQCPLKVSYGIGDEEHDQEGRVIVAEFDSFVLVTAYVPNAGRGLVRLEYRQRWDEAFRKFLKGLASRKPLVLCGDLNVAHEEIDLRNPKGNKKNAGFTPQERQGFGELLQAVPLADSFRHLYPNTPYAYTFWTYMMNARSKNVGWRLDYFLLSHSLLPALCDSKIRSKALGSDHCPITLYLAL
T1 sequence (P27695 whole entry): as above
protein with a molecular weight of about 38 kDa (Ref-1), sequence (P27695 whole entry): as above
T3 sequence (P27695 whole entry): as above
recombinant protein of Ref-1, sequence (P27695 whole entry): as above

## CNCCNS(=O)(=O)c1cccc2cnccc12 [H-8]
[1]
  elution of the 30 kDa protein from H-9-immobilized particles by free drug: same protein band was obtained
  yield of the 30 kDa protein in competition experiment: lower yield

## CNC(=O)c1cccc(NCC(=O)NCCc2ccc(OC)c(OC)c2)c1 [DQ2511]
[2]
  protein obtained from immobilized particles (binding ability): possessing DQ2511-binding ability
[3]
  protein band not observed in reference control (specific binding): specifically binding to DQ2511

## CCCCCCCCC/C(=C\C1=C(C)C(=O)C(OC)=C(OC)C1=O)C(=O)O [E3330]
NF-κB
  transcriptional activation abilities of NF-κB: reduced
[4]
  enhancement of the DNA-binding activity of NF-κB by Ref-1: reduced
  increase in the DNA-binding activity of NF-κB by DTT: did not inhibit
[5]
  binding of recombinant Ref-1 to immobilized drug: specifically bound to E3330
Ref-1 [6]
  binding in Far Western method: bound to Ref-1
[7]
  enhancement of DNA-binding ability of p50/p50 homo-dimer or p65/p50 hetero-dimer by Ref-1: reduced
[8]
  binding of recombinant protein possessing only 72 a.a. to 88 a.a. of Ref-1: confirmation of its binding ability against E3330
[9]
  protein bands not observed in reference control (specific binding): specifically binding to E3330
[10]; P.5 fraction, 1 M KCl eluate, SDS-PAGE silver staining
  protein band not observed in reference control (specific binding): specifically binding to E3330
[10]; free E3330 at the same moles as immobilized NH2-E3330
  yield of the about 38 kDa protein in competitive binding-inhibitory experiment: lowered
Solubility in water
  solubility in water: insoluble in water
Ref-1 [11]
  AP nuclease activity of Ref-1: not inhibited

## NCCNS(=O)(=O)c1cccc2cnccc12 [H-9]
[1]; HeLa nuclear extract, SDS-PAGE silver staining
  protein band not observed in reference control (specific binding): specifically binding to H-9
[1]
  elution of the 30 kDa protein from H-9-immobilized particles by free drug: same protein band was obtained
  yield of the 30 kDa protein in competition experiment: lower yield
